No end group written: not given here.

The subject of one assay is S. aureus. As to the kind of experiment: Minimal inhibitory concentration (MIC) assay, broth microdilution. The conditions noted are these: S. aureus 29213; in the presence of PBS. In kind it is cell-based, Staphylococcus aureus. A general note: Dilution methods test growth across graded concentrations, often in twofold steps.
Method: (§1) Daughter plates were prepared as follows.
(§2) Cultured media were prepared as follows.
Turning to “GGG-D-Dab-cyclic(L-Dab-L-Dab-D-Leu-L-Phe-L-Dab-L-Dab-L-Leu) [GGG-Octapeptin]”, the “MIC Sau 29213” value is above 128 µg/mL.

In another assay the test system is K. pneumoniae. The assay is described as above. In kind it is cell-based, Klebsiella pneumoniae. The following applies: K. pneumoniae 700603; in the presence of PBS.
Method: as §1, §2
“GGGGLRRLGRKIAHGIKKYGPTILRIIRIAG [Peptide P293]”: the “MIC Kpn 700603” value was found to be 4 µg/mL.

As for “GGG-D-Dab-cyclic(L-Dab-L-Dab-D-Leu-L-Phe-L-Dab-L-Dab-L-Leu) [GGG-Octapeptin]”, the “MIC Kpn 700603” value is above 128 µg/mL.

“GGGRGLRRLGRKIAHGVKKYGPTVLRIIKKYG [Peptide P294]”: the “MIC Kpn 700603” value was found to be 8 µg/mL.

Turning to “GGGLLGDFFRKSKEKIGKEFKRIVQRIKDFLRNLVPRTES [Peptide P265]”, the “MIC Kpn 700603” value was above 128 µg/mL.

Another assay deals with E. coli. Described as above. Format: cell-based, Escherichia coli. The conditions noted are these: E. coli 25922.
Method: as §1, §2
Regarding “GAFGNFLKGVAKKAGLKILSIAQCKLFGTC [peptide 70]”, the “MIC Eco 25922” value amounted to 4 µg/mL.

As for “GLRKRLRKFRNKIKEKLKKIGQKIQGLLPKLA [Peptide 33]”, the “MIC Eco 25922” value amounted to 8 µg/mL.

For GIGKFLKKAKKFGKAFVKILKK [peptide 109], the “MIC Eco 25922” value is 4 µg/mL.

On to “GGGGSGGGGSGIGKFLKKAKKFGKAFVKILKK [peptide 23]”, for which the “MIC Eco 25922” value amounted to 8 µg/mL.

Regarding “(MAL)-(EG3)-GIGKFLKKAKKFGKAFVKILKK [peptide 21]”, the “MIC Eco 25922” value turned out to be 8 µg/mL.

Still in this assay, the particulars now being: E. coli 43745; in the presence of PBS.
Turning to “GGGGLRKRLRKFRNKIKEKLKKIGQKIQGLLPKLA [Peptide P271]”, the “MIC Eco 43745” value was 4 µg/mL.

As to “GGGGLRRLGRKIAHGIKKYGPTILRIIRIAG [Peptide P293]”, the “MIC Eco 43745” value worked out at 4 µg/mL.

On to “GGGKRFKKFFKKLKNSVKKRAKKFFKKPRVIGVSIPF [Peptide P296]”, for which the “MIC Eco 43745” value was 4 µg/mL.

Consider “GGGRGLRRLGRKIAHGVKKYGPTVLRIIKKYG [Peptide P294]”, for which the “MIC Eco 43745” value was found to be 2 µg/mL.

With “GGGLLGDFFRKSKEKIGKEFKRIVQRIKDFLRNLVPRTES [Peptide P265]”, the “MIC Eco 43745” value is 8 µg/mL.

With “GGGKFFRKLKKSVKKRAKEFFKKPRVIGVSIPF [Peptide P297]”, the “MIC Eco 43745” value worked out at 2 µg/mL.

For the substance “GGGGIGKFLKKAKKFGKAFVKILKK [Peptide P261]”, the “MIC Eco 43745” value came to 4 µg/mL.

The subject of a further assay is P. aeruginosa. Kind of assay: Microbial killing assay (percent killing, CFU). Format: cell-based, Pseudomonas aeruginosa. The conditions noted are these: MDR P. aeruginosa strain BAA-2108.
Method: Bactericidal assay: Direct killing activity of the ADC can be measured against two well described laboratory strains of P. aeruginosa (PA14 and PA01) and no less than three clinical strains of P. aeruginosa, including MDR and Pan-resistant strains. These assays are conducted in the absence of complement or effector cells. Activity in this assay can provide insight on the inherent killing activity of the ADC.
The microbial killing assay was performed as follows. Bacterial cells were grown aerobically overnight on agar plates at 37° C. Overnight plates were used to seed 30 ml cultures of growth media in 250 ml vented flasks. Cultures were grown aerobically at 37° C., shaking at 150 rpm. Growth was monitored at A600 nM and bacterial cells were harvested at mid-log growth. Ten ml of culture was pelleted at 4000×G for 10 minutes and washed one time with PBS plus 1% BSA before re-suspending in 2 ml PBS+BSA. […] Cultures were diluted to 1×10^4 cells/ml in PBS plus BSA. Test articles were diluted in PBS+1% BSA and 50 μl per concentration tested was loaded into a 96 well polypropylene microtiter plate. Fifty μl of diluted culture was added to all test wells as well as no compound control wells. Plates were shaken and incubated at 37° C., 90 minutes, static. Ten μl from each assay well was plated onto agar plates and incubated at 37° C. overnight. Percent killing was determined by the CFU for test wells compared to the CFU for no compound control wells.
As to “GGGGRFKRFRKKFKKLFKKLSPVIPLLHLG [Peptide P295]”, the “50% Killing Activity, BAA-2108” value amounted to 0.6 µg/mL.

“GGGKFFRKLKKSVKKRAKEFFKKPRVIGVSIPF [Peptide P297]”: the “50% Killing Activity, BAA-2108” value came to 0.28 µg/mL.

The assay is the same for the next values; noted with them: MDR P. aeruginosa strain BAA-2110.
For the substance “GGGGRFKRFRKKFKKLFKKLSPVIPLLHLG [Peptide P295]”, the “50% Killing Activity, BAA-2110” value was 0.6 µg/mL.

With “GGGKFFRKLKKSVKKRAKEFFKKPRVIGVSIPF [Peptide P297]”, the “50% Killing Activity, BAA-2110” value turned out to be 0.28 µg/mL.

The assay is the same for the next values; noted with them: MDR P. aeruginosa strain BAA-2114.
In the case of “GGGGRFKRFRKKFKKLFKKLSPVIPLLHLG [Peptide P295]”, the “50% Killing Activity, BAA-2114” value came to 0.14 µg/mL.

As for “GGGKFFRKLKKSVKKRAKEFFKKPRVIGVSIPF [Peptide P297]”, the “50% Killing Activity, BAA-2114” value was 0.07 µg/mL.

Still in this assay, the particulars now being: P. aeruginosa strain 27853; Table 10.
On to “GGGGRFKRFRKKFKKLFKKLSPVIPLLHLG [Peptide P295]”, for which the “50% Killing Activity, Pae 27853” value is 0.3 µg/mL.

Regarding “GGGKFFRKLKKSVKKRAKEFFKKPRVIGVSIPF [Peptide P297]”, the “50% Killing Activity, Pae 27853” value came to 0.04 µg/mL.

The test system of another assay is P. aeruginosa 27853. Kind of assay: MIC / killing activity in the presence of human serum (hsMIC, 50% human serum). Format: cell-based, Pseudomonas aeruginosa. The following applies: P. aeruginosa 27853; 50% human serum. As to the method:
In an embodiment, the MIC is determined in the presence of phosphate-buffered saline (PBS). In an embodiment, the MIC or hsMIC is determined on per ADC basis. In an embodiment, the MIC or hsMIC is determined on per payload or antimicrobial peptide basis.
For “GGGGRFKRFRKKFKKLFKKLSPVIPLLHLG [Peptide P295]”, the “50% hsMIC Pae 27853” value turned out to be 2 µg/mL.

For the substance “GGGKRFKKFFKKLKNSVKKRAKKFFKKPRVIGVSIPF [Peptide P296]”, the “50% hsMIC Pae 27853” value turned out to be 1 µg/mL.

With “GGG-D-Dab-cyclic(L-Dab-L-Dab-D-Leu-L-Phe-L-Dab-L-Dab-L-Leu) [GGG-Octapeptin]”, the “50% hsMIC Pae 27853” value amounted to 2 µg/mL.

Take Ceftazadime [reference compound]: the “50% hsMIC Pae 27853” value was determined as 1 µg/mL.

Take “GGGLLGDFFRKSKEKIGKEFKRIVQRIKDFLRNLVPRTES [Peptide P265]”: the “50% hsMIC Pae 27853” value is above 128 µg/mL.

Regarding “GGGKFFRKLKKSVKKRAKEFFKKPRVIGVSIPF [Peptide P297]”, the “50% hsMIC Pae 27853” value was 8 µg/mL.

Still in this assay, the particulars now being: ratio.
“GGGGRFKRFRKKFKKLFKKLSPVIPLLHLG [Peptide P295]”: the hsMIC/MIC was 0.5.

As for “GGGKRFKKFFKKLKNSVKKRAKKFFKKPRVIGVSIPF [Peptide P296]”, the hsMIC/MIC is 0.25.

Consider “GGG-D-Dab-cyclic(L-Dab-L-Dab-D-Leu-L-Phe-L-Dab-L-Dab-L-Leu) [GGG-Octapeptin]”, for which the hsMIC/MIC is listed as 1.

Ceftazadime [reference compound]: the hsMIC/MIC was 1.

As for “GGGLLGDFFRKSKEKIGKEFKRIVQRIKDFLRNLVPRTES [Peptide P265]”, the hsMIC/MIC was above 4.

As to “GGGKFFRKLKKSVKKRAKEFFKKPRVIGVSIPF [Peptide P297]”, the hsMIC/MIC amounted to 2.

In another assay the test system is P. aeruginosa. As to the kind of experiment: Minimal inhibitory concentration (MIC) assay, broth microdilution. In kind it is cell-based, Pseudomonas aeruginosa. The following applies: P. aeruginosa 27853.
Regarding “GIGKFLKKAKKFGKAFVKILKKGGGGSGGGGS [peptide 24]”, the “MIC Pae 27853” value was 8 µg/mL.

Turning to “GAFGNFLKGVAKKAGLKILSIAQCKLFGTC [peptide 70]”, the “MIC Pae 27853” value amounted to 8 µg/mL.

“GLRKRLRKFRNKIKEKLKKIGQKIQGLLPKLA [Peptide 33]”: the “MIC Pae 27853” value turned out to be 8 µg/mL.

Consider GIGKFLKKAKKFGKAFVKILKK [peptide 109], for which the “MIC Pae 27853” value worked out at 8 µg/mL.

Regarding “RLGNFFRKAKKKIGRGLKKIGQKIKDFLGNLVPRTES [peptide 128]”, the “MIC Pae 27853” value was determined as 8 µg/mL.

Still in this assay, the particulars now being: P. aeruginosa 27853; in the presence of PBS.
In the case of “GGGGRFKRFRKKFKKLFKKLSPVIPLLHLG [Peptide P295]”, the “MIC Pae 27853” value was 4 µg/mL.

Regarding “GGGGLRRLGRKIAHGIKKYGPTILRIIRIAG [Peptide P293]”, the “MIC Pae 27853” value is 8 µg/mL.

As for “GGGKRFKKFFKKLKNSVKKRAKKFFKKPRVIGVSIPF [Peptide P296]”, the “MIC Pae 27853” value was 4 µg/mL.

Turning to “GGG-D-Dab-cyclic(L-Dab-L-Dab-D-Leu-L-Phe-L-Dab-L-Dab-L-Leu) [GGG-Octapeptin]”, the “MIC Pae 27853” value was 2 µg/mL.

For Ceftazadime [reference compound], the “MIC Pae 27853” value turned out to be 1 µg/mL.

Regarding “GGGKFFRKLKKSVKKRAKEFFKKPRVIGVSIPF [Peptide P297]”, the “MIC Pae 27853” value is 4 µg/mL.

The same assay, now with this note: P. aeruginosa 39324; in the presence of PBS.
Turning to “GGGGRFKRFRKKFKKLFKKLSPVIPLLHLG [Peptide P295]”, the “MIC Pae 39324” value was determined as 4 µg/mL.

In the case of “GGGGLRRLGRKIAHGIKKYGPTILRIIRIAG [Peptide P293]”, the “MIC Pae 39324” value was determined as 2 µg/mL.

As for “GGGKRFKKFFKKLKNSVKKRAKKFFKKPRVIGVSIPF [Peptide P296]”, the “MIC Pae 39324” value was found to be 2 µg/mL.

Take “GGG-D-Dab-cyclic(L-Dab-L-Dab-D-Leu-L-Phe-L-Dab-L-Dab-L-Leu) [GGG-Octapeptin]”: the “MIC Pae 39324” value was 2 µg/mL.

Take Ceftazadime [reference compound]: the “MIC Pae 39324” value was 1 µg/mL.

Regarding “GGGKFFRKLKKSVKKRAKEFFKKPRVIGVSIPF [Peptide P297]”, the “MIC Pae 39324” value is 2 µg/mL.

The assay is the same for the next values; noted with them: P. aeruginosa ATCC 27853.
With “GGGGRFKRFRKKFKKLFKKLSPVIPLLHLG [Peptide P295]”, the “MIC (P. aeruginosa ATCC 27853)” value was in the range of 1 to 4 µg/mL.

As to “GGGKFFRKLKKSVKKRAKEFFKKPRVIGVSIPF [Peptide P297]”, the “MIC (P. aeruginosa ATCC 27853)” value is 1 to 4 µg/mL.

Staying with this assay, now noted: strain Pae27853.
For the substance Ceftazadime [reference compound], the “MIC Pae 27853” value was 1 µg/mL.

The assay is the same for the next values; noted with them: strain Pae39324.
In the case of Ceftazadime [reference compound], the “MIC Pae 39324” value was found to be 2 µg/mL.

The next assay concerns P. aeruginosa ATCC 27853. Kind of assay: Resistance rate determination (standard and micro-dotting protocols). The following applies: 2x MIC. In kind it is cell-based, Pseudomonas aeruginosa. The text has this: . These rates are considered favorable when compared to published rates in the 10^−5 to 10^−8 range. […]
Consider Colistin [reference compound], for which the “resistance rate, Micro-dotting” value is listed as 1.08E−07 and the “resistance rate, Standard” value was 6.50E−08.

In the case of “GIGKFLKKAKKFGKAFVKILKK-NH2 [Peptide P32]”, the “resistance rate, Micro-dotting” value came to 1.08E−07.

Staying with this assay, now noted: 4x MIC.
Colistin [reference compound]: the “resistance rate, Micro-dotting” value came out at 2.10E−09 and the “resistance rate, Standard” value worked out at 1.60E−09.

With “GIGKFLKKAKKFGKAFVKILKK-NH2 [Peptide P32]”, the “resistance rate, Micro-dotting” value is 9.59E−08 and the “resistance rate, Standard” value is listed as below 1.6E−09.

The assay is the same for the next values; noted with them: 4×MIC and above.
In the case of “GIGKFLKKAKKFGKAFVKILKK-NH2 [Peptide P32]”, the “growth of resistant colonies, standard protocol” value is “no growth was observed”.

The assay is the same for the next values; noted with them: 8x MIC.
Turning to Colistin [reference compound], the “resistance rate, Micro-dotting” value is listed as below 1.1E−09 and the “resistance rate, Standard” value is below 1.6E−09.

With “GIGKFLKKAKKFGKAFVKILKK-NH2 [Peptide P32]”, the “resistance rate, Micro-dotting” value was found to be 8.02E−09 and the “resistance rate, Standard” value is below 1.6E−09.
